Assays:
[1] = biological target: T1, BA/F3-FLT3-ITD + D835Y cells (Homo sapiens, UniProt P36888, D835Y, cells depend on it, form not given); test: Cell proliferation assay (CellTiter-Glo), engineered BA/F3 cells; assay type: cell-based, murine; conditions: BaF3 FLT3 ITD/D835Y cells, 3d-Growth; read-out: BaF3_FLT3 ITD/D835Y 3d-Growth: IC50
T1 sequence (P36888 1-993 D835Y): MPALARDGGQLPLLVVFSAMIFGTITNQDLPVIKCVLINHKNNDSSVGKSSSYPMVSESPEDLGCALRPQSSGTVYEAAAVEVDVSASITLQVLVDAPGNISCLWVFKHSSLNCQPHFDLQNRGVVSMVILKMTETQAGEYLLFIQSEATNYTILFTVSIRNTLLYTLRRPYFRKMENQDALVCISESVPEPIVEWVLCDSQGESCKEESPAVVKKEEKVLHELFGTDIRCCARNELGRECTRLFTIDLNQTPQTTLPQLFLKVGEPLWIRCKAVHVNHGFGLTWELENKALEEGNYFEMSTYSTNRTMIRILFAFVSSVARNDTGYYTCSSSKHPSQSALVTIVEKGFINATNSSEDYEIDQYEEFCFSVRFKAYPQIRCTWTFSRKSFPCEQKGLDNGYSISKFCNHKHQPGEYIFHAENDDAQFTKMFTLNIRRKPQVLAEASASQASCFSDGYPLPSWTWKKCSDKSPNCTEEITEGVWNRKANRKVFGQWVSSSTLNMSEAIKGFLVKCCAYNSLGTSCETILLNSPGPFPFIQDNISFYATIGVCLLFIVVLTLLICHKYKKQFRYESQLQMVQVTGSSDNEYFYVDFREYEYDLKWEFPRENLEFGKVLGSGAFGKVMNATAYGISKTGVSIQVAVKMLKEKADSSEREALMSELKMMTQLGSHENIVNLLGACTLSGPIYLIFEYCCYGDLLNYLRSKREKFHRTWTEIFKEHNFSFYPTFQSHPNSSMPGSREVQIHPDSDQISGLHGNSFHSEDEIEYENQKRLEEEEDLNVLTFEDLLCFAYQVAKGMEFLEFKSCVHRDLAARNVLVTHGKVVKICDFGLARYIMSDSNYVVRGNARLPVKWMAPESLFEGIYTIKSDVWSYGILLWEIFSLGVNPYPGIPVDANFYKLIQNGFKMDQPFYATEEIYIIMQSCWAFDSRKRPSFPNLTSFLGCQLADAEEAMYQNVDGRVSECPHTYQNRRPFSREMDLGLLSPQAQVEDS
Excerpt: The FLT3 inhibitors may be assessed using the MOLM-14, Acute Myeloid Leukemia cell line that endogenously expresses FLT3 ITD or derivatives of the human FLT3 AML cell line which acquired the D835Y (activation loop) of F691L (gatekeeper) mutation after selection in escalating doses of the FLT3 Inhibitor AC220. FLT3 inhibitors may also be assessed using cells that are engineered to express mutant FLT3. For engineered cells, murine Ba/F3 cells were transfected with full-length FLT3 ITD/D835Y mutations. The parental BA/F3 cells are dependent upon Interleukin-3 (IL-3) for survival, and introduction of the FLT3 constructs rendered these cells dependent upon FLT3 kinase activity when cultured in the absences of IL-3. Engineered BA/F3 cell growth assays can be performed in either the […] of IL-3, to assess the compound inhibition of FLT3 or to detect the presence of off-target activity, respectively. Inhibitors of FLT3 kinase activity reduce or eliminate the FLT3 oncogenic signaling, resulting in reduced cell proliferation. This inhibition is measured as a function of compound concentration to asses IC50 values.
Cell lines used in proliferation assays are as follows in Table 3:
Cells were seeded at 1×10^4 cells per well of a 96 well cell culture plate in 50 μl of cell culture medium. Compounds were dissolved in DMSO, typically at a concentration of 0.5 mM and were serially diluted 1:3 for a total of eight points and added to the cells to final concentrations of […], 0.0041, 0.0014 and 0.00046 μM in 100 μl cell culture medium (final concentration 0.2% DMSO). […] The cells were incubated at 37° C., 5% CO2 for three days. CellTiter-Glo Buffer (Promega Cell Viability Assay catalog #G7573) and substrate were equilibrated to room temperature, and enzyme/substrate Recombinant Firefly Luciferase/Beetle Luciferin was reconstituted. The cell plates were equilibrated to room temperature for 30 minutes, then lysed by addition of an equivalent volume of the Celltiter-Glo Reagent. The plate was mixed for 10 minutes on a plate shaker to lyse the cells. The plates were read on a Tecan M1000 using Luminescence protocol modified to read 0.1 s per well. The luminescence reading assesses the ATP content, which correlates directly with cell number such that the reading as a function of compound concentration was used to determine the IC50 value.

[2] = biological target: T2, c-KIT (Homo sapiens, UniProt P10721); test: AlphaScreen kinase assay with recombinant enzyme, c-KIT; assay type: biochemical; conditions: 100ATP, 8pt, GMean
T2 construct: purchased Millipore 14-559K
Procedure, shortened: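 Compounds in DMSO added to enzyme plus biotin-poly(Glu4-Tyr) (30 nM) in assay buffer, then ATP added. Streptavidin donor beads added (20 min, RT), then PY20 acceptor beads (60 min, RT), both at 10 μg/mL final in stop/detection buffer. IC50 conditions: 10 μM FLT3-D835Y/ITD, 100 μM c-KIT.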

T2 sequence (P10721 26-976): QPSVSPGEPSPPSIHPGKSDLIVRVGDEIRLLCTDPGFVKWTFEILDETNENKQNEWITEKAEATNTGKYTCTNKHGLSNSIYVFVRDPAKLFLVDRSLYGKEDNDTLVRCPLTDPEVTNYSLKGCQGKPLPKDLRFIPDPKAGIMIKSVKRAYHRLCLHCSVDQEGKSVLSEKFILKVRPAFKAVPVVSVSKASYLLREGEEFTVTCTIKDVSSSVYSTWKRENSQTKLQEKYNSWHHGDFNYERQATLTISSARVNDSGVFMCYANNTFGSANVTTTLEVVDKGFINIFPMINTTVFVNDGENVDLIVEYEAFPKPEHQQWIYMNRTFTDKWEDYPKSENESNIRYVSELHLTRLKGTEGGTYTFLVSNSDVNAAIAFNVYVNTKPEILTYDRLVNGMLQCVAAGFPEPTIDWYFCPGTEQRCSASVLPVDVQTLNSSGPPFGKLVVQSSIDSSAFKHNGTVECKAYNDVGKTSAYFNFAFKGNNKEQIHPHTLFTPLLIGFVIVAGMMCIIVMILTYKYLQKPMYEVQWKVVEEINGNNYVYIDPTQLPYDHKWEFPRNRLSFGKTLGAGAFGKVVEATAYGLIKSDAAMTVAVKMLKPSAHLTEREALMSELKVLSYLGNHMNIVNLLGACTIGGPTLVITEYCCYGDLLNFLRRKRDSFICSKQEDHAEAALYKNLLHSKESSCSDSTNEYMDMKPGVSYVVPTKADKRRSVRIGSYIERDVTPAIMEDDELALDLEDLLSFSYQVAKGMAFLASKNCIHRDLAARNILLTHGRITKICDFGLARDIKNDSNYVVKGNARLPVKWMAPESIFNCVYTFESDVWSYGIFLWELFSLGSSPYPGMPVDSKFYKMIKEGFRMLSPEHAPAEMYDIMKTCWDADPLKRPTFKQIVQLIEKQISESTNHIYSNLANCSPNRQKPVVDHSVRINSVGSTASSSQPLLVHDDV

GI50 [1] | IC50 [2] | Compound
0.0001 to 10 µM | 10 to 50 µM | O=C(c1cccc(-c2cnc3[nH]c(-c4cnn(CC(F)(F)F)c4)cc3c2)n1)N1CCC(F)(F)C1 [Compound P-0112, (3,3-difluoropyrrolidin-1-yl)-[6-[2-[1-(2,2,2-trifluoroethyl)pyrazol-4-yl]-1H-pyrrolo[2,3-b]pyridin-5-yl]-2-pyridyl]methanone]
0.0001 to 10 µM | 0.0001 to 10 µM | CC(C)(C#N)CNC(=O)c1cccc(-c2cnc3[nH]c(-c4cnn(CC(F)(F)F)c4)cc3c2)n1 [Compound P-0113, N-(2-cyano-2-methyl-propyl)-6-[2-[1-(2,2,2-trifluoroethyl)pyrazol-4-yl]-1H-pyrrolo[2,3-b]pyridin-5-yl]pyridine-2-carboxamide]
0.0001 to 10 µM | 50 to 100 µM | N#CC1(NC(=O)c2cccc(-c3cnc4[nH]c(-c5ccccc5)cc4c3)n2)CCC1 [Compound P-0114, N-(1-cyanocyclobutyl)-6-(2-phenyl-1H-pyrrolo[2,3-b]pyridin-5-yl)pyridine-2-carboxamide]
0.0001 to 10 µM | 50 to 100 µM | N#CC1(F)CCN(C(=O)c2cccc(-c3cnc4[nH]c(-c5ccccc5)cc4c3)n2)C1 (stereo not drawn) [Compound P-0115, 3-fluoro-1-[6-(2-phenyl-1H-pyrrolo[2,3-b]pyridin-5-yl)pyridine-2-carbonyl]pyrrolidine-3-carbonitrile]
0.0001 to 10 µM | 0.0001 to 10 µM | N#C[C@H]1CCN(C(=O)c2cccc(-c3cnc4[nH]c(-c5ccccc5)cc4c3)n2)C1 [Compound P-0117, (3S)-1-[6-(2-phenyl-1H-pyrrolo[2,3-b]pyridin-5-yl)pyridine-2-carbonyl]pyrrolidine-3-carbonitrile]
0.0001 to 10 µM | 50 to 100 µM | CC(C)(C#N)NC(=O)c1cccc(-c2cnc3[nH]c(-c4ccccc4)cc3c2)n1 [Compound P-0118, N-(1-cyano-1-methyl-ethyl)-6-(2-phenyl-1H-pyrrolo[2,3-b]pyridin-5-yl)pyridine-2-carboxamide]
0.0001 to 10 µM | 50 to 100 µM | CN(CCC#N)C(=O)c1cccc(-c2cnc3[nH]c(-c4ccccc4)cc3c2)n1 [Compound P-0119, N-(2-cyanoethyl)-N-methyl-6-(2-phenyl-1H-pyrrolo[2,3-b]pyridin-5-yl)pyridine-2-carboxamide]
0.0001 to 10 µM | 0.0001 to 10 µM | N#CC1CCN(C(=O)c2cccc(-c3cnc4[nH]c(C5=CCCCC5)cc4c3)n2)C1 (stereo not drawn) [Compound P-0120, 1-[6-[2-(cyclohexen-1-yl)-1H-pyrrolo[2,3-b]pyridin-5-yl]pyridine-2-carbonyl]pyrrolidine-3-carbonitrile]
0.0001 to 10 µM | 0.0001 to 10 µM | CC(C)(C#N)CNC(=O)c1cccc(-c2cnc3[nH]c(C4=CCCCC4)cc3c2)n1 [Compound P-0123, N-(2-cyano-2-methyl-propyl)-6-[2-(cyclohexen-1-yl)-1H-pyrrolo[2,3-b]pyridin-5-yl]pyridine-2-carboxamide]
